According to patent publication US20260083735A1, “ABHD6 ANTAGONIST” (ONO PHARMACEUTICAL CO., LTD., priority 2022, published 2026):

Key:
human ABHD6 = biological target: T1, human ABHD6 (Homo sapiens, UniProt Q9BV23); test: Measurement of binding affinity for human ABHD6 (BRET, HEK293 cells expressing NanoLuc-human ABHD6 fusion protein); conditions: fluorescent probe 100 nmol/L
T1 construct: expressed in transfected cells; host or cells: HEK293
T1 sequence (Q9BV23 1-337): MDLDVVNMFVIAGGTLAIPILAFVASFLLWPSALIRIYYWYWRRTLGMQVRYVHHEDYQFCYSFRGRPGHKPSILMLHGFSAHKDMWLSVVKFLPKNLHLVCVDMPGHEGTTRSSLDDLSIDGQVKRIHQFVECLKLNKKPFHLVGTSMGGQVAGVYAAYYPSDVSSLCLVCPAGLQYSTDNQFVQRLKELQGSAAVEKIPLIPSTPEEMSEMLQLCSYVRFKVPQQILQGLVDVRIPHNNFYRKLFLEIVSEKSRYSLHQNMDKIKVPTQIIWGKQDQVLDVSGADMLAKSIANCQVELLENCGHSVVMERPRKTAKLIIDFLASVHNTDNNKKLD
Protocol: The binding affinity of the test compound for human ABHD6 was measured using bioluminescence resonance energy transfer (hereinafter, abbreviated as BRET) as an index. The bioluminescence resonance energy transfer is induced by the proximity of a probe molecule and a NanoLuc-human ABHD6 fusion protein, which is caused by allowing a fluorescent probe molecule and a test compound to act in a competitive manner using HEK293 cells forcibly expressing the NanoLuc-human ABHD6 fusion protein.
The test compound and the compound described in Example 2 as a control substance were each dissolved in dimethyl sulfoxide (DMSO) to prepare a 10 mmol/L solution. The prepared 10 mmol/L solution was thawed at the time of use, serially diluted with DMSO, and subjected to an experiment.
HEK293 cells expressing a NanoLuc-human ABHD6 fusion protein were statically cultured at 37° C. in the presence of 5% CO2 using inactivated (56° C., 30 min) 9.8 vol % non-dialyzed-FBS (containing 0.5 vol % GENETICIN and 1% penicillin-streptomycin). The subculture was performed by the following method.
The culture medium was removed, and the cells were washed once with phosphate buffered saline without Ca^2+ and Mg^2+. An appropriate amount of trypsin-EDTA was added, and the cells were incubated at room temperature. After the cells were detached, a culture medium in a volume 10-fold the volume of trypsin-EDTA (0.05%) was added to stop an enzyme reaction. The cells were collected in a centrifuge tube, and centrifuged at room temperature for 3 minutes at 120 g, and the supernatant was removed. The cells were suspended in an appropriate amount of culture medium and seeded in a culture flask.
HEK293 cells expressing a NanoLuc-human ABHD6 fusion protein were prepared, and then cryopreserved so as to be 5.0×10^6 cells/mL/vial in CELLBANKER2, and the cells were subjected to an experiment. HBSS (+) containing 20 mmol/L HEPES (pH 7.3) and 0.1% BSA was prepared and used as an assay buffer. The cells were thawed and suspended in the assay buffer to prepare a cell suspension of 2×10^5 cells/mL. […] The plate was allowed to stand at 37° C. for 30 minutes in the presence of 5% CO2. Then, a probe molecule (10 mmol/L in DMSO) having a fluorophore was diluted with the assay buffer so as to have a final concentration of 100 nmol/L, and added to the assay plate in an amount of 15 μL each. Further, this was allowed to stand at 37° C. for 30 minutes in the presence of 5% CO2. Then, a Nano-Glo (registered trademark) Vivazine (trademark) substrate (Promega Corporation) was diluted with the assay buffer according to the method described in the protocol, and added to the assay plate in an amount of 10 μL each, and this was allowed to stand at room temperature for 1 hour. Thereafter, the luminescence and fluorescence intensity were measured using a GloMax (registered trademark) discover system. The ratio between the emission intensity through the 450 nm bandpass filter and the fluorescence intensity through the 600 nm longpass filter was defined as the measured value of each sample. […] The measured value of the group not containing the compound was defined as 0% inhibition. The IC50 value of the test compound was determined from the measured value at each test compound concentration.

[1] = biological target: T2, recombinant human ABHD6 (33-337) (Homo sapiens, UniProt Q9BV23); test: Evaluation of ABHD6 enzyme inhibitory activity (arachidonic acid production from 1-arachidonoyl glycerol, RapidFire-MS); type: biochemical; conditions: recombinant human GST-tagged ABHD6 (33-337), substrate 1-arachidonoyl glycerol 10 μmol/L, 1 hour, room temperature
T2 construct: recombinant human ABHD6 (33-337); GST; made in house; host or cells: E. coli
T2 sequence (Q9BV23 33-337): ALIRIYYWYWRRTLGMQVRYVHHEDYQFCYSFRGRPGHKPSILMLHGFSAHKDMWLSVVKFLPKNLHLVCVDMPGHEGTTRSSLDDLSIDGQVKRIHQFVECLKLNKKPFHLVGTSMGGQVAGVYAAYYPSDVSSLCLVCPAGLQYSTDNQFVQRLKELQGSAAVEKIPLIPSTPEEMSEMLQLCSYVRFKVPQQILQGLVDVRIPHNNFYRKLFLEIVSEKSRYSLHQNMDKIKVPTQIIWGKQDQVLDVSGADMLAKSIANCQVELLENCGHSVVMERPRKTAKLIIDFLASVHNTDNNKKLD
Protocol: The recombinant human ABHD6 (33-337) was a GST-tagged ABHD6, and one which was expressed in E. coli, then purified with a Glutathione-Sepharose 4B resin, and then concentrated was used. The enzyme reaction was carried out at room temperature using a 384-well microplate made of polypropylene, and wells to which no enzyme was added were designated as a blank group.
One hour after the start of the enzyme reaction, methanol containing, as an internal standard substance, arachidonic acid-d8 (Cayman Chemical) and 1% formic acid was added to stop enzymatic reaction. The upper part of the enzyme reaction plate was sealed with aluminum, and centrifugation was performed at 560 g for 5 minutes at room temperature. Then, arachidonic acid as an enzyme reaction product and arachidonic acid-d8 as the internal standard substance were quantified with RapidFire (registered trademark)-Mass Spectrometry system.

Cc1ccc(C(=O)N2C[C@@H]3CC[C@@H](Oc4ccc(Br)nn4)[C@@H]3C2)s1 [Example 1-1, [(3aS,4R,6aR)-4-[(6-Bromo-3-pyridazinyl)oxy]hexahydrocyclopenta[c]pyrrol-2(1H)-yl](5-methyl-2-thienyl)methanone]
IC50 (human ABHD6): 11 nM
IC50 [1]: 1 nM

O=C(c1cc2nn(C3CC3)cc2s1)N1C[C@@H]2CC[C@@H](Oc3ccc(Br)nn3)[C@@H]2C1 [Example 1-4, [(3aS,4R,6aR)-4-[(6-Bromo-3-pyridazinyl)oxy]hexahydrocyclopenta[c]pyrrol-2(1H)-yl](2-cyclopropyl-2H-thieno[3,2-c]pyrazol-5-yl)methanone]
IC50 (human ABHD6): 4 nM
IC50 [1]: < 1 nM

O=C(c1ccc(C(F)F)s1)N1C[C@@H]2CC[C@@H](Oc3ccc(Br)nn3)[C@@H]2C1 [Example 1-7, [(3aS,4R,6aR)-4-[(6-Bromo-3-pyridazinyl)oxy]hexahydrocyclopenta[c]pyrrol-2(1H)-yl][5-(difluoromethyl)-2-thienyl]methanone]
IC50 (human ABHD6): 20 nM
IC50 [1]: < 1 nM

Cn1ncc2cc(C(=O)N3C[C@@H]4CC[C@@H](Oc5ccc(Br)nn5)[C@@H]4C3)sc21 [Example 1-10, [(3aS,4R,6aR)-4-[(6-Bromo-3-pyridazinyl)oxy]hexahydrocyclopenta[c]pyrrol-2(1H)-yl](1-methyl-1H-thieno[2,3-c]pyrazol-5-yl)methanone]
IC50 (human ABHD6): 4 nM
IC50 [1]: < 1 nM

COC(=O)N1CCc2sc(C(=O)N3C[C@@H]4CC[C@@H](Oc5ccc(Br)nn5)[C@@H]4C3)cc2C1 [Example 1-13]
IC50 (human ABHD6): 5 nM
IC50 [1]: < 1 nM

O=C(c1ccc(OCCF)s1)N1C[C@@H]2CC[C@@H](Oc3ccc(Br)nn3)[C@@H]2C1 [Example 1-19, [(3aS,4R,6aR)-4-[(6-Bromo-3-pyridazinyl)oxy]hexahydrocyclopenta[c]pyrrol-2(1H)-yl][5-(2-fluoroethoxy)-2-thienyl]methanone]
IC50 (human ABHD6): 10 nM
IC50 [1]: < 1 nM

O=C(c1cc2c(s1)CCOC2)N1CC2CCC(Oc3nnc(Cl)c4ccsc34)C2C1 (stereo not shown) [Example 2-3, {4-[(4-Chlorothieno[2,3-d]pyridazin-7-yl)oxy]hexahydrocyclopenta[c]pyrrol-2(1H)-yl}(6,7-dihydro-4H-thieno[3,2-c]pyran-2-yl)methanone]
IC50 (human ABHD6): 9 nM
IC50 [1]: 1 nM

COc1cc(Cl)nnc1O[C@@H]1CC[C@H]2CN(C(=O)c3cc4c(s3)CCOC4)C[C@H]21 [Example 2-5, [(3aS,4R,6aR)-4-[(6-Chloro-4-methoxy-3-pyridazinyl)oxy]hexahydrocyclopenta[c]pyrrol-2(1H)-yl](6,7-dihydro-4H-thieno[3,2-c]pyran-2-yl)methanone]
IC50 (human ABHD6): 9 nM
IC50 [1]: 2 nM

O=C(c1cc2c(s1)CCOC2)N1C[C@@H]2CC3(CC3)[C@@H](Oc3ccc(Br)nn3)[C@@H]2C1 [Example 4, [(3aS,4S,6aR)-4-[(6-Bromo-3-pyridazinyl)oxy]tetrahydro-1H-spiro[cyclopenta[c]pyrrole-5,1′-cyclopropan]-2(3H)-yl](6,7-dihydro-4H-thieno[3,2-c]pyran-2-yl)methanone]
IC50 (human ABHD6): 1 nM
IC50 [1]: < 1 nM

O=C(c1cc2c(s1)CCOC2)N1C[C@@H]2CC[C@@H](Oc3ccc(Br)nn3)[C@]2(O)C1 [Example 7, [(3aR,4R,6aS)-4-[(6-Bromo-3-pyridazinyl)oxy]-3a-hydroxyhexahydrocyclopenta[c]pyrrol-2(1H)-yl](6,7-dihydro-4H-thieno[3,2-c]pyran-2-yl)methanone]
IC50 (human ABHD6): 3 nM
IC50 [1]: 2 nM

O=C(c1cc2c(s1)CCOC2)N1C[C@@H]2C[C@H](F)[C@@H](Oc3ccc(Br)nn3)[C@@H]2C1 [Example 9, [(3aS,4S,5S,6aR)-4-[(6-Bromo-3-pyridazinyl)oxy]-5-fluorohexahydrocyclopenta[c]pyrrol-2(1H)-yl](6,7-dihydro-4H-thieno[3,2-c]pyran-2-yl)methanone]
IC50 (human ABHD6): 2 nM
IC50 [1]: < 1 nM
